# Laboratory results: the supplement of paper PMC10307832
# How the values were obtained:
# Assay in all cases: relative viability (nuclei count vs DMSO), 5 days (fraction); higher = more cells survive
# NCI-H520 = system: NCI-H520
# In short: (§1)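 For relative viability, nuclei counts in treated wells were divided by those in vehicle wells. Lung cancer cell lines had been pin-tool dosed in 1536-well plates the day after seeding and cultured for 5 days, then fixed and stained in one step (final 0.05% Triton X-100, 1% formaldehyde, 1 ug/ml Hoechst) and imaged at 4×. Doses were one drug alone or a fixed anchor-drug dose plus five library-drug doses (not always all listed) in √10 steps, and values are duplicate-plate medians.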
# IA-LM = system: IA-LM
# In short: as §1
# NCI-H1299 = system: NCI-H1299
# In short: as §1
# Calu-6 = system: Calu-6
# In short: as §1
# LCLC-103H = system: LCLC-103H
# In short: as §1
# EBC-1 = system: EBC-1
# In short: as §1
# NCI-H1355 = system: NCI-H1355
# In short: as §1
# NCI-H1703 = system: NCI-H1703
# In short: as §1
# A549 = system: A549
# In short: as §1
compound,measurement,setting,value
O=C(O)c1ccc(-c2c[nH]c3ncc(-c4ccccc4)cc23)cc1C1CCCC1 + C[C@@H](Oc1cc(-c2cnn(C3CCNCC3)c2)cnc1N)c1c(Cl)ccc(F)c1Cl [Crizotinib] (partner 1 µM),relative viability,NCI-H520; first compound 0.04 µM,0.748
same,relative viability,NCI-H520; first compound 0.1265 µM,1.02
same,relative viability,NCI-H520; first compound 0.4 µM,0.744
same,relative viability,NCI-H520; first compound 1.265 µM,0.828
same,relative viability,IA-LM; first compound 0.04 µM,0.698
same,relative viability,IA-LM; first compound 0.1265 µM,0.772
same,relative viability,IA-LM; first compound 0.4 µM,0.893
same,relative viability,IA-LM; first compound 1.265 µM,0.835
same,relative viability,NCI-H1299; first compound 0.04 µM,0.966
same,relative viability,NCI-H1299; first compound 0.1265 µM,0.952
same,relative viability,NCI-H1299; first compound 0.4 µM,0.916
same,relative viability,NCI-H1299; first compound 1.265 µM,0.868
same,relative viability,Calu-6; first compound 0.04 µM,0.828
same,relative viability,Calu-6; first compound 0.1265 µM,0.777
same,relative viability,Calu-6; first compound 0.4 µM,0.72
same,relative viability,Calu-6; first compound 1.265 µM,0.636
same,relative viability,LCLC-103H; first compound 0.04 µM,0.997
same,relative viability,LCLC-103H; first compound 0.1265 µM,1.05
same,relative viability,LCLC-103H; first compound 0.4 µM,1.03
same,relative viability,LCLC-103H; first compound 1.265 µM,1.04
same,relative viability,EBC-1; first compound 0.04 µM,0.185
same,relative viability,EBC-1; first compound 0.1265 µM,0.217
same,relative viability,EBC-1; first compound 0.4 µM,0.185
same,relative viability,EBC-1; first compound 1.265 µM,0.191
same,relative viability,NCI-H1355; first compound 0.04 µM,1.05
same,relative viability,NCI-H1355; first compound 0.1265 µM,1.14
same,relative viability,NCI-H1355; first compound 0.4 µM,1.04
same,relative viability,NCI-H1355; first compound 1.265 µM,0.752
same,relative viability,NCI-H1703; first compound 0.04 µM,0.482
same,relative viability,NCI-H1703; first compound 0.1265 µM,0.85
same,relative viability,NCI-H1703; first compound 0.4 µM,0.669
same,relative viability,NCI-H1703; first compound 1.265 µM,0.647
same,relative viability,A549; first compound 0.04 µM,0.795
same,relative viability,A549; first compound 0.1265 µM,0.776
same,relative viability,A549; first compound 0.4 µM,0.668
same,relative viability,A549; first compound 1.265 µM,0.44
C=C1C(=O)O[C@@H](CCCCCCCC)[C@@H]1C(=O)O [C-75] + C[C@]1(O)C[C@@H](c2nc(-c3ccc4ccc(-c5ccccc5)nc4c3)c3c(N)nccn32)C1 [Linsitinib] (partner 1 µM),relative viability,NCI-H520; first compound 0.08 µM,1.1
same,relative viability,NCI-H520; first compound 0.253 µM,1.28
same,relative viability,NCI-H520; first compound 0.8 µM,0.904
same,relative viability,NCI-H520; first compound 2.53 µM,0.906
same,relative viability,NCI-H520; first compound 8 µM,0.825
same,relative viability,IA-LM; first compound 0.08 µM,0.682
same,relative viability,IA-LM; first compound 0.253 µM,0.644
same,relative viability,IA-LM; first compound 0.8 µM,0.53
same,relative viability,IA-LM; first compound 2.53 µM,0.556
same,relative viability,IA-LM; first compound 8 µM,0.53
same,relative viability,NCI-H1299; first compound 0.08 µM,1.01
same,relative viability,NCI-H1299; first compound 0.253 µM,0.908
same,relative viability,NCI-H1299; first compound 0.8 µM,1.05
same,relative viability,NCI-H1299; first compound 2.53 µM,0.814
same,relative viability,NCI-H1299; first compound 8 µM,1.06
same,relative viability,Calu-6; first compound 0.08 µM,0.902
same,relative viability,Calu-6; first compound 0.253 µM,0.941
same,relative viability,Calu-6; first compound 0.8 µM,0.905
same,relative viability,Calu-6; first compound 2.53 µM,0.916
same,relative viability,Calu-6; first compound 8 µM,0.724
same,relative viability,LCLC-103H; first compound 0.08 µM,0.999
same,relative viability,LCLC-103H; first compound 0.253 µM,1.29
same,relative viability,LCLC-103H; first compound 0.8 µM,1.08
same,relative viability,LCLC-103H; first compound 2.53 µM,0.862
same,relative viability,LCLC-103H; first compound 8 µM,1.09
same,relative viability,EBC-1; first compound 0.08 µM,0.878
same,relative viability,EBC-1; first compound 0.253 µM,1.05
same,relative viability,EBC-1; first compound 0.8 µM,0.82
same,relative viability,EBC-1; first compound 2.53 µM,0.821
same,relative viability,EBC-1; first compound 8 µM,0.734
same,relative viability,NCI-H1355; first compound 0.08 µM,0.849
same,relative viability,NCI-H1355; first compound 0.253 µM,0.803
same,relative viability,NCI-H1355; first compound 0.8 µM,0.806
same,relative viability,NCI-H1355; first compound 2.53 µM,0.805
same,relative viability,NCI-H1355; first compound 8 µM,0.825
same,relative viability,NCI-H1703; first compound 0.08 µM,0.752
same,relative viability,NCI-H1703; first compound 0.253 µM,0.591
same,relative viability,NCI-H1703; first compound 0.8 µM,0.672
same,relative viability,NCI-H1703; first compound 2.53 µM,0.457
same,relative viability,NCI-H1703; first compound 8 µM,0.632
same,relative viability,A549; first compound 0.08 µM,0.526
same,relative viability,A549; first compound 0.253 µM,0.753
same,relative viability,A549; first compound 0.8 µM,0.549
same,relative viability,A549; first compound 2.53 µM,0.37
same,relative viability,A549; first compound 8 µM,0.628
Oc1nc(-c2ccc(C(F)(F)F)cc2)nc2c1CSCC2 [XAV939] + C[C@]1(O)C[C@@H](c2nc(-c3ccc4ccc(-c5ccccc5)nc4c3)c3c(N)nccn32)C1 [Linsitinib] (partner 1 µM),relative viability,NCI-H520; first compound 0.08 µM,0.983
same,relative viability,NCI-H520; first compound 0.253 µM,0.974
same,relative viability,NCI-H520; first compound 0.8 µM,0.833
same,relative viability,NCI-H520; first compound 2.53 µM,0.775
same,relative viability,IA-LM; first compound 0.08 µM,0.565
same,relative viability,IA-LM; first compound 0.253 µM,0.512
same,relative viability,IA-LM; first compound 0.8 µM,0.505
same,relative viability,IA-LM; first compound 2.53 µM,0.458
same,relative viability,NCI-H1299; first compound 0.08 µM,1.03
same,relative viability,NCI-H1299; first compound 0.253 µM,0.878
same,relative viability,NCI-H1299; first compound 0.8 µM,0.948
same,relative viability,NCI-H1299; first compound 2.53 µM,0.948
same,relative viability,Calu-6; first compound 0.08 µM,0.981
same,relative viability,Calu-6; first compound 0.253 µM,1.04
same,relative viability,Calu-6; first compound 0.8 µM,0.953
same,relative viability,Calu-6; first compound 2.53 µM,0.856
same,relative viability,LCLC-103H; first compound 0.08 µM,1.05
same,relative viability,LCLC-103H; first compound 0.253 µM,0.943
same,relative viability,LCLC-103H; first compound 0.8 µM,1.19
same,relative viability,LCLC-103H; first compound 2.53 µM,1.02
same,relative viability,EBC-1; first compound 0.08 µM,1.02
same,relative viability,EBC-1; first compound 0.253 µM,0.832
same,relative viability,EBC-1; first compound 0.8 µM,0.809
same,relative viability,EBC-1; first compound 2.53 µM,0.754
same,relative viability,NCI-H1355; first compound 0.08 µM,0.867
same,relative viability,NCI-H1355; first compound 0.253 µM,0.783
same,relative viability,NCI-H1355; first compound 0.8 µM,0.82
same,relative viability,NCI-H1355; first compound 2.53 µM,0.666
same,relative viability,NCI-H1703; first compound 0.08 µM,1.31
same,relative viability,NCI-H1703; first compound 0.253 µM,1.02
same,relative viability,NCI-H1703; first compound 0.8 µM,0.969
same,relative viability,NCI-H1703; first compound 2.53 µM,0.584
same,relative viability,A549; first compound 0.08 µM,0.696
same,relative viability,A549; first compound 0.253 µM,0.526
same,relative viability,A549; first compound 0.8 µM,0.486
same,relative viability,A549; first compound 2.53 µM,0.51
